Data: patent US6821988B2, “3-cyanoquinolines as inhibitors of EGF-R and HER2 kinases” (Wyeth Holdings Corporation, priority 2001, dated 2004)
pIC50: −log10 of the molar value. Converted amounts (≈) assume the structure as drawn. “And” between values parts separate entries of the source, which are not always exact repeats. Identical values can stand only once.

Tests used:
[1] = test system: SW620 (colon carcinoma); test: Inhibition of cancer cell growth, sulforhodamine B assay, SW620; format: cell-based, human; details: SW620, 2 days; for IC50: Homo sapiens, SW-620, 48 h, read-out: Inhibition of Cancer Cell Growth in vitro IC50, SW620
Description: (§1) […], A431 (epidermoid carcinoma), SKBR3 (breast carcinoma), SW620 (colon carcinoma), and MDA-MB435 (breast carcinoma), BT474 (breast carcinoma), and two murine lines, 3T3 (murine fiboblasts) and HER2-3T3 (murine fiboblasts transfected with human HER2) were used for cell proliferation assays. Cells were maintained in RPMI -1640 medium supplemented with 5% fetal bovine serum. Cells were plated in 96-well plates at the densities of 2.5×10^4/ml for 3T3 and 3T3/HER2 and 5.0×10^4/ml for the rest of the cell lines. On the next day, compounds were dosed at 0.5, 5, 50, 500, and 5000 ng/ml and cultured for 2 days. At the end of incubation, cell survival was determined by the sulforhodamine B assay as previously described (Skehan, P; Stornet, R.; Scudiero, D.; Monks, A.; McMahon, J.; Vistica D., Warren, J.; Bokbosch, H.; Kenny, S.; Boyd, M. New Colorimetric Cytotoxic Assay for Anticancer-Drug Screening. J. Natl. Cancer Inst. 1990, 82, 1107-1112). The IC50 values (the concentration needed to inhibit cell growth by 50%) were obtained from the growth curves and are shown below in Table 2 where the results of multiple determinations are included.

[2] = target: T1, EGFR cytoplasmic domain (EGFR-CD, amino acid 645-1186) (Homo sapiens, UniProt P00533); test: Inhibition of EGF-R kinase autophosphorylation, recombinant enzyme, DELFIA/time-resolved fluorometry; format: biochemical
T1 construct: EGFR cytoplasmic domain (EGFR-CD, amino acid 645-1186); made in house; host or cells: Sf-9 insect cells, baculovirus (pFASTBacHTc)
Description: (§2) A 1.7 kb cDNA encoding human HER2 cytoplasmic domain (HER2-CD, amino acid 676-1255) and 1.6 kb cDNA for EGFR cytoplasmic domain (EGFR-CD, amino acid 645-1186) were cloned into baculoviral expression vectors, pBlueBacHis2B (Invitrogen) and pFASTBacHTc (GIBCO), separately. A sequence encoding (His)6 is located at the 5′ end upstream to HER2 and EGFR sequences. Sf-9 cells were infected at moi=10 for 3 days for protein expression. Sf-9 cell pellets were solubilized on ice in buffer containing 50 mM HEPES, pH 7.4, 10 mM NaCl, 1% Triton, 10 μM ammonium molybdate, 100 μM sodium vanadate, 10 μg/ml aprotinin, 10 μg/ml leupeptin, 10 μg/ml pepstatin, and 16 ug/ml benzamidine HCl for 20 min followed by 20 min centrifugation. Crude extract supernatant was passed through equilibrated Ni-NTA superflow packed column (Qiagen, Valencia, Calif.) and wash with 10 mM, and 100 mM imidazole to remove unspecific binding. Histidine-tagged proteins were eluted with 250 mM and 500 mM imidazole and dialyzed against 50 mM NaCl, 20 mM HEPES, 10% glycerol and 1 μg/ml each of aprotinin, leupeptin and pepstatin for 2 h. All the purification procedure was performed at 4° C. or on ice. Purified materials were subjected for electrophoresis followed by Coommassie blue stain to determine the purity of the preparation and Western blot for the identity of protein. Enzymes were aliquoted and stored at −80° C.
(§3) Inhibition of EGFR and HER2 kinase autophosphorylation was measured by a DELFIA/time-resolved fluorometry assay. Compounds were dissolved in 100% DMSO and diluted to the appropriate concentrations with 25 mM HEPES, pH 7.4. In each well, 10 μl of compound was incubated with 10 μl of recombinant EGF-R or HER2 enzyme (1:80 dilution in 100 mM HEPES) for 10 min at room temperature. Then, 10 μl of 5×buffer (containing 20 mM HEPES, 2 mM MnCl2, 100 uM Na3VO4 and 1 mM DTT) and 20 μl of 0.1 mM ATP/50 mM MgCl2 was added for 1 h. Positive and negative controls were included in each plate by incubation of enzyme with or without ATP/MgCl2. At the end of incubation, liquid was aspirated and washed three times with wash buffer. 75 μl (400 ng).of europium-labeled anti-phosphotyrosine antibody was added to each well for another hour of incubation. After wash, enhancement solution was added and the signal was detected by Victor (Wallac Inc) with excitation at the wavelength of 340 nm and emission at the wavelength of 615 nm. All reagents were supplied by Wallac Inc (Wallac/Perkin-Elimer). Percentage of autophosphorylation inhibition by compound was calculated by […]. IC50 values were obtained from curves of percentage inhibition with 8 doses of compound.

[3] = test system: A431 (epidermoid carcinoma); test: Inhibition of cancer cell growth, sulforhodamine B assay, A431; format: cell-based, human; details: A431, 2 days; for IC50: Homo sapiens, A-431, 48 h, read-out: Inhibition of Cancer Cell Growth in vitro IC50, A431
Description: as §1

[4] = target: T2, human HER2 cytoplasmic domain (HER2-CD, amino acid 676-1255) (Homo sapiens, UniProt P04626); test: Inhibition of HER2 kinase autophosphorylation, recombinant enzyme, DELFIA/time-resolved fluorometry; format: biochemical; details: for pIC50: recombinant HER2 autophosphorylation
T2 construct: human HER2 cytoplasmic domain (HER2-CD, amino acid 676-1255); made in house; host or cells: Sf-9 insect cells, baculovirus (pBlueBacHis2B)
Description: as §2, §3

[5] = test system: 3T3 (murine fiboblasts); test: Inhibition of cell growth, sulforhodamine B assay, 3T3; format: cell-based; details: 3T3, 2 days; for IC50: Mus musculus, 48 h, read-out: Inhibition of Cancer Cell Growth in vitro IC50, 3T3
Description: as §1

[6] = test system: HER2-3T3 (murine fiboblasts transfected with human HER2); test: Inhibition of cell growth, sulforhodamine B assay, HER2-3T3; format: cell-based; details: HER2-3T3, 2 days; for IC50: Mus musculus, 48 h, read-out: Inhibition of Cancer Cell Growth in vitro IC50, HER2-3T3
Description: as §1

[7] = test system: BT474 (breast carcinoma); test: Inhibition of cancer cell growth, sulforhodamine B assay, BT474; format: cell-based; details: Homo sapiens, BT-474, 48 h; BT474, 2 days; read-out: Inhibition of Cancer Cell Growth in vitro IC50, BT474
Description: as §1

[8] = test system: Murine 3T3 fibroblasts, tranfected with Her2; test: In vivo inhibition of the growth of tumors of murine 3T3 fibroblasts transfected with HER2 in nude mice; parameters: species or system Athymic nu/nu female mice
Description: Representative compounds of this invention (listed below) were evaluated in an in vivo standard pharmacological test procedure which measures their ability to inhibit tumor growth in nude mice. Murine 3T3 fibroblasts, tranfected with Her2 were grown in vitro. Athymic nu/nu female mice (Charles River, Wilmington, Mass.) were used in this in vivo standard pharmacological test procedure. A unit of 2×10^6 cells was injected SC into mice (day zero). Beginning on day 1, mice were treated IP every other day for a total of 11 days with a dose of 30 mg/kg/dose of the compound to be evaluated in 0.5% Methocel/0.4% Tween 80. Control animals received vehicle alone. […] Absolute tumor growth in mgs, (mean tumor mass on days 7, 14 and 21), is calculated for each treatment group. Statistical analysis (Student t-test) of Mean Tumor Mass compares treated verses control groups. A p-value of ≦0.05 indicates a statistically significant reduction in tumor growth of treated group compared to the vehicle control.
The compound of Example 7 was evaluated for its ability to inhibit the growth of a murine fiboblast tumor that was transfected with human HER2 in vivo using the standard pharmacological test procedure described above.

[9] = test system: SKBR3 (breast carcinoma); test: Inhibition of cancer cell growth, sulforhodamine B assay, SKBR3; format: cell-based, human; details: SKBR3, 2 days
Description: as §1

[10] = test system: MDA-MB435 (breast carcinoma); test: Inhibition of cancer cell growth, sulforhodamine B assay, MDA-MB435; format: cell-based, human; details: MDA-MB435, 2 days
Description: as §1

[11] = 30 mg/kg/dose IP on days 1, 3, 5, 7, 9 and 11, day 7
[12] = 30 mg/kg/dose IP on days 1, 3, 5, 7, 9 and 11, day 14

T1 sequence (P00533 669-1210): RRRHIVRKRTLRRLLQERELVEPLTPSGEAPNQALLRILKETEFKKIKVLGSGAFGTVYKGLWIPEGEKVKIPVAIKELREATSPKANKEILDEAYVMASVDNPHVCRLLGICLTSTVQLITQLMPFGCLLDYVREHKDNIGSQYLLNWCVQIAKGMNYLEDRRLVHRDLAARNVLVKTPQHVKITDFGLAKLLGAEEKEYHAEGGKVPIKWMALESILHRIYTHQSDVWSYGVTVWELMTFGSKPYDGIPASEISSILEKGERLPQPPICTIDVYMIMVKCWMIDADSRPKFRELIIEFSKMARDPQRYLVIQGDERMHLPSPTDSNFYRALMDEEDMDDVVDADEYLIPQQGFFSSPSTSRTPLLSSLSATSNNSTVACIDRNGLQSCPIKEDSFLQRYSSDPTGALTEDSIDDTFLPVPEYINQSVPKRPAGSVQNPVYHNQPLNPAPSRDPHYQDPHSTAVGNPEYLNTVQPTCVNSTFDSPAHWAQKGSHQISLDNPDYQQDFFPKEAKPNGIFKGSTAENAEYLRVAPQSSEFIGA
T2 sequence (P04626 676-1255): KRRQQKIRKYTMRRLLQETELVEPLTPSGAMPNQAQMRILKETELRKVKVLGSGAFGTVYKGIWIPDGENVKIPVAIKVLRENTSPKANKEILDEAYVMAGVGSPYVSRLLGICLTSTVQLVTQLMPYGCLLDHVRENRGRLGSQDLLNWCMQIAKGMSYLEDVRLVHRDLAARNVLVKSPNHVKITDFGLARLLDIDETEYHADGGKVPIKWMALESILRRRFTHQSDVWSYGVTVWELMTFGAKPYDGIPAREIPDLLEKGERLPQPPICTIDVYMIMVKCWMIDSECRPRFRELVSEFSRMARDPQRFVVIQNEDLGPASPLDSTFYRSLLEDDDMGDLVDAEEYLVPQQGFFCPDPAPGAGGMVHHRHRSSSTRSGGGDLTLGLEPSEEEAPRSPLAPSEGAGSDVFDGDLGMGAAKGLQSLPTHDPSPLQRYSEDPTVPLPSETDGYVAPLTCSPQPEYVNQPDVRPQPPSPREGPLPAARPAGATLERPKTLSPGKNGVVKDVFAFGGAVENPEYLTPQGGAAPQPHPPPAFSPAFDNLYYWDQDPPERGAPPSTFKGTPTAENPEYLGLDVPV

Row | IC50 [1] [µg/mL] | pIC50 [2] | Inhibition of Cancer Cell Growth in vitro IC50, A431 [3] | IC50 [3] [µg/mL] | pIC50 [4] | SMILES | IC50 [5] [µg/mL] | Inhibition of Cancer Cell Growth in vitro IC50, HER2-3T3 [6] | IC50 [6] [µg/mL] | Inhibition of Cancer Cell Growth in vitro IC50, 3T3 [5] | further results
1 | > 5 | 5.66 | 0.21 µg/mL | 0.2 (≈ 0.258 µM) | 6.07 | CCOc1cc2ncc(C#N)c(Nc3ccc(F)c(Cl)c3)c2cc1NC(=O)CC(CN(C)C)SCC(NC(=O)CC[C@@H](N)C(=O)O)C(=O)NCC(=O)O (stereo partly drawn) [Example 8, (2R)-2-amino-5-({2-[(carboxymethyl)amino]-1-[({3-{[4-(3-chloro-4-fluoroanilino)-3-cyano-7-ethoxy-6-quinolinyl]amino}-1-[(dimethylamino)methyl]-3-oxopropyl}sulfanyl)methyl]-2-oxoethyl}amino)-5-oxopentanoic acid] | > 5 | – | – | – | –
2 | – | 5.32 | 0.37 µg/mL and 0.28 µg/mL | 0.242 (≈ 0.36 µM) | 5.88 and 6.10 | COc1cc2ncc(C#N)c(Nc3ccc(Sc4nc(-c5ccccc5)cs4)c(Cl)c3)c2cc1NC(=O)CC(CN(C)C)N(C)C (centres unmarked) [Example 1] | 0.76 (≈ 1.13 µM) | 0.04 µg/mL and 0.03 µg/mL | 0.041 (≈ 0.061 µM) | 0.7 µg/mL and 0.57 µg/mL | IC50 [7]: 0.02 µg/mL (≈ 0.0297 µM); inhibition at 2 µg/mL ([4]; read-out: HER2 % Inhibition at 2 μg/mL): 63%
3 | 0.19 (≈ 0.302 µM) | – | 0.73 µg/mL | 0.87 (≈ 1.38 µM) | 5.80 | CCOc1cc2ncc(C#N)c(Nc3ccc(OCc4ccccc4)c(Cl)c3)c2cc1NC(=O)CC(CCCN(C)C)N(C)C (centres unmarked) [Example 5, N-{4-[4-(Benzyloxy)-3-chloroanilino]-3-cyano-7-ethoxy-6-quinolinyl}-3,6-bis(dimethylamino)hexanamide] | 0.42 (≈ 0.668 µM) | – | 1.1 (≈ 1.75 µM) | – | EGF-R IC50 [2]: 1.0 µg/mL; IC50 ([10]; Homo sapiens, MDA-MB-435, 48 h, read-out: Inhibition of Cancer Cell Growth in vitro IC50, MDA-MB435): 0.36 µg/mL (≈ 0.572 µM); Inhibition of Cancer Cell Growth in vitro IC50, MDA-MB435 [10]: 0.49 µg/mL

Row | SMILES | IC50 [1] [µg/mL] | pIC50 [2] | Inhibition of Cancer Cell Growth in vitro IC50, A431 [3] | IC50 [3] [µg/mL] | pIC50 [4] | IC50 [5] [µg/mL] | Inhibition of Cancer Cell Growth in vitro IC50, HER2-3T3 [6] | IC50 [6] [µg/mL] | Inhibition of Cancer Cell Growth in vitro IC50, 3T3 [5] | further results
4 | CCOc1cc2ncc(C#N)c(Nc3ccc(OCc4ccccc4)c(Cl)c3)c2cc1NC(=O)CC(CN1CCCC1)N1CCCC1 (centres unmarked) [Example 7, N-{4-[4-(Benzyloxy)-3-chloroanilino]-3-cyano-7-ethoxy-6-quinolinyl}-3,4-di(1-pyrrolidinyl)butanamide] | 0.23 (≈ 0.352 µM) | – | – | – | 7.47 | 0.35 (≈ 0.536 µM) | 0.014 µg/mL | 0.017 (≈ 0.026 µM) | 0.37 µg/mL | inhibition of tumor growth (in words) ([8]; 30 mg/kg i.p.): significantly inhibited tumor growth; tumors in the control mice larger than tumors in treated mice (fold) ([8]; 30 mg/kg i.p., day 14): 8.5 times; % T/C Day 7 [8, 11]: 15%; Mean Tumor Weight Day 7 [8, 11]: 39 mg; % T/C Day 14 [8, 12]: 12%; Mean Tumor Weight Day 14 [8, 12]: 261 mg; Mean Tumor Weight Day 21 ([8]; 30 mg/kg/dose IP on days 1, 3, 5, 7, 9 and 11, day 21): 1849 mg; S/T = No. Survivors/No. on Day +28 post tumor cell implantation ([8]; 30 mg/kg/dose IP on days 1, 3, 5, 7, 9 and 11, day +28): 10/10; Inhibition of Cancer Cell Growth in vitro IC50, SKBR3 [9]: 0.0025 µg/mL; Inhibition of Cancer Cell Growth in vitro IC50, SW620 [1]: 0.28 µg/mL
